Laboratory results from paper PMC7763472, “High Capability of Pentagalloylglucose (PGG) in Inhibiting Multiple Types of Membrane Ionic Currents” (International Journal of Molecular Sciences, 2020).

Biological target: T1, proton-activated Cl− channel (PAC) (Rattus norvegicus, UniProt Q66H28)
T1 construct: gene Pacc1
Experiment: whole-cell patch clamp of native IPAC in GH3 cells, pH […], single concentration […]
Assay type: cell-based

T1 sequence (Q66H28 whole entry): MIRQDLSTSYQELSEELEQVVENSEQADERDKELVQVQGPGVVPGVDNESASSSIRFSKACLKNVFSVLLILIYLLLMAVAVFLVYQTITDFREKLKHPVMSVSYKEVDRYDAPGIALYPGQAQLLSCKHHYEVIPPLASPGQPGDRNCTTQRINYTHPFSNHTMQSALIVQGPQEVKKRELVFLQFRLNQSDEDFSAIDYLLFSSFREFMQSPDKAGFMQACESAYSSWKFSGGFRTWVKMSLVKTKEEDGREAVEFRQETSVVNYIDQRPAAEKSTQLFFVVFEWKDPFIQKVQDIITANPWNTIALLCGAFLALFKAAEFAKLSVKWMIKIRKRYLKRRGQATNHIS

CCCCC1(C2CCCC2)Cc2cc(OCCCC(=O)O)c(Cl)c(Cl)c2C1=O (stereo not shown) [DCPIB, 4-[(2-Butyl-6,7-dichloro-2-cyclopentyl-2,3-dihydro-1-oxo-1H-inden-5yl)oxy] butanoic acid]
inhibition at 10 µM: 51%
